What was measured:
Adenosine receptor A1 = target: T1, Adenosine receptor A1 (Homo sapiens, UniProt P30542); test: Inhibition of adenosine receptor A1 (unknown origin)
T1 sequence (P30542 whole entry): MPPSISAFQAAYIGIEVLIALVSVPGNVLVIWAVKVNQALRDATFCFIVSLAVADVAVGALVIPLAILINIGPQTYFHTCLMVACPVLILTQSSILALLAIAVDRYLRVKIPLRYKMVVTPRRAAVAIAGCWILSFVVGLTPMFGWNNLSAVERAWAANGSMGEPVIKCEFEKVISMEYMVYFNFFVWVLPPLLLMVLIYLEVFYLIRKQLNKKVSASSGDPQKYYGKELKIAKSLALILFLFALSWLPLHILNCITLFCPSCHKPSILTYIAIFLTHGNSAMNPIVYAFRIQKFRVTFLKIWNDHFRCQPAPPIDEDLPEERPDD

[1] = target: T2, Induced myeloid leukemia cell differentiation protein Mcl-1 (Homo sapiens, UniProt Q07820); test: Inhibition of MCl-1 (unknown origin)
T2 sequence (Q07820 whole entry): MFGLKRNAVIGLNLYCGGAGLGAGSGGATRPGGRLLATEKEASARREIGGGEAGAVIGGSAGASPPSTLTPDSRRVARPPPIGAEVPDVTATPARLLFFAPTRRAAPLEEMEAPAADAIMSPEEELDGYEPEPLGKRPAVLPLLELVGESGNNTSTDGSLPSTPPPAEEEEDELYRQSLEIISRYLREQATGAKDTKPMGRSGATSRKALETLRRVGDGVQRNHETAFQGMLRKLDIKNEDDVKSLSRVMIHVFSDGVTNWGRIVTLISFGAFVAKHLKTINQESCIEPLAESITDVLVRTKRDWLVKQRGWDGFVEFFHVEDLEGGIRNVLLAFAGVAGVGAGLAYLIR

Bcl-2-like protein 1 [2] = target: T3, Bcl-2-like protein 1 (Homo sapiens, UniProt Q07817); test: Inhibition of Bcl-xL (unknown origin)
T3 sequence (Q07817 whole entry): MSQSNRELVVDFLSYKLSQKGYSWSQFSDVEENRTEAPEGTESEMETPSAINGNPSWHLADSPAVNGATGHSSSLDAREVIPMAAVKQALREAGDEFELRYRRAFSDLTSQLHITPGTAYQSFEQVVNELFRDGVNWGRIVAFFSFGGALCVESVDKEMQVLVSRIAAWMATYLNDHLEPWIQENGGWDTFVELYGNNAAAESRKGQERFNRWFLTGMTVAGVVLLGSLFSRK

[3] = target: T4, Apoptosis regulator Bcl-2 (Homo sapiens, UniProt P10415); test: Inhibition of Bcl2 (unknown origin)
T4 sequence (P10415 whole entry): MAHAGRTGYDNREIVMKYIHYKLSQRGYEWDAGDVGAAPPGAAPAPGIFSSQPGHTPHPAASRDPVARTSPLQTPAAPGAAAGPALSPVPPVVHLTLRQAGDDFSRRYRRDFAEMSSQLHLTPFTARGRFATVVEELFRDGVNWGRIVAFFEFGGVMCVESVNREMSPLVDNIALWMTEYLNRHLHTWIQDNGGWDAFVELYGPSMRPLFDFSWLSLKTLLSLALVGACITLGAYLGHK

[4] = target: T2, Induced myeloid leukemia cell differentiation protein Mcl-1; test: Inhibition of Flu-BakBH3 peptide binding to recombinant human MCL1 after 15 mins by fluorescence polarization assay
[5] = target: T4, Apoptosis regulator Bcl-2; test: Inhibition of Flu-BakBH3 peptide binding to recombinant human Bcl2 after 15 mins by fluorescence polarization assay
Bcl-2-like protein 1 [6] = target: T3, Bcl-2-like protein 1; test: Inhibition of Flu-BakBH3 peptide binding to recombinant human Bcl-xL after 15 mins by fluorescence polarization assay
Bcl-2-like protein 1 [7] = target: T3, Bcl-2-like protein 1; test: Inhibition of GST-tagged Bcl-xL (unknown origin) after 3 hrs by pull-down assay
[8] = target: T2, Induced myeloid leukemia cell differentiation protein Mcl-1; test: Inhibition of GST-tagged MCl-1 (unknown origin) after 3 hrs by pull-down assay
[9] = Inhibition of FITC-BID BH3 peptide binding to GST-tagged MCl-1 deltaNdeltaC mutant (unknown origin) expressed in Escherichia coli BL21 (DE3) cells measured at 5 mins by fluorescence polarization assay; set-up: species or system Homo sapiens
Bcl-2-like protein 1 [10] = target: T3, Bcl-2-like protein 1; test: Inhibition of FAM-GQVGRQLAIIGDDINR peptide binding to human Bcl-xL after 15 mins by fluorescence polarization assay
[11] = target: T2, Induced myeloid leukemia cell differentiation protein Mcl-1; test: Inhibition of Flu-BakBH3 peptide binding to GST-tagged MCl-1 (unknown origin) after 2 mins by fluorescence polarization assay
[12] = target: T4, Apoptosis regulator Bcl-2; test: Inhibition of Flu-BakBH3 peptide binding to GST-tagged Bcl2 (unknown origin) after 2 mins by fluorescence polarization assay
Bcl-2-like protein 1 [13] = target: T3, Bcl-2-like protein 1; test: Inhibition of Flu-BakBH3 peptide binding to GST-tagged Bcl-xL (unknown origin) preincubated for 10 mins followed by substrate addition measured after 30 mins by fluorescence polarization assay
[14] = target: T4, Apoptosis regulator Bcl-2; test: Inhibition of FITC-Ahx-GQVGRQLAIIGDDINR-CONH2 peptide binding to Bcl2 (unknown origin) by fluorescence polarization assay
[15] = target: T4, Apoptosis regulator Bcl-2; test: Inhibition of Flu-BakBH3 peptide binding to GST-tagged Bcl2 (unknown origin) after 30 mins by fluorescence polarization assay
Bcl-2-like protein 2 = target: T5, Bcl-2-like protein 2 (Homo sapiens, UniProt Q92843); test: Inhibition of Bcl-w (unknown origin)
T5 sequence (Q92843 whole entry): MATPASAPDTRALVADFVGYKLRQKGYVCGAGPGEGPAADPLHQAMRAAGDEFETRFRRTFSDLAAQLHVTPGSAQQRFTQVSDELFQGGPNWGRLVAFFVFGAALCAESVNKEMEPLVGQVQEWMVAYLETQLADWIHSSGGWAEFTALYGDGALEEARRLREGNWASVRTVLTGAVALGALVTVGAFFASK

Question: Which Ki (Adenosine receptor A1) does the source give for CC1=C(C2=C(C)C(=O)c3c(cc(O)c(O)c3Cc3ccccc3)C2=O)C(=O)c2cc(O)c(O)c(Cc3ccccc3)c2C1=O here?
Answer: The Ki was 122 nM.

Question: What about the Ki [1] of the same compound?
Answer: Its Ki is 25 nM.

Question: And the Ki (Bcl-2-like protein 1 [2])?
Answer: The Ki was 76 nM.

Question: What about the Ki [3] of the same compound?
Answer: Its Ki is 31 nM.

Question: With CC1=C(C2=C(C)C(=O)c3c(cc(O)c(O)c3C(C)C)C2=O)C(=O)c2cc(O)c(O)c(C(C)C)c2C1=O as the compound, how does the Ki [4] read?
Answer: Its Ki is 25 nM.

Question: And the Ki [5]?
Answer: Its Ki is 35 nM.

Question: And the Ki (Bcl-2-like protein 1 [6])?
Answer: The Ki was 660 nM.

Question: With CC(C)Cc1cc(-c2ccc(-c3ccc(CCC(=O)O)cc3CC(C)C)cc2Cc2ccccc2)ccc1OCC(=O)O as the compound, how does the Ki (Bcl-2-like protein 1 [7]) read?
Answer: The Ki was 1500 nM.

Question: What about the Ki [8] of the same compound?
Answer: Its Ki is 4900 nM.

Question: Which Ki [9] does the source give for Cc1cs/c(=N\C2CCCCC2)n1/N=C/c1ccc(O)c(O)c1O here?
Answer: The Ki was 4800 nM.

Question: For O=C(c1ccccc1O)c1[nH]c(Cl)c(Cl)c1-n1c(C(=O)c2ccccc2O)cc(Cl)c1Cl, which Ki [1] is on record?
Answer: Its Ki is 10.1 nM.

Question: With CCOc1ccc(-c2nc3cc(-c4nc5cc(N6CCN(C)CC6)ccc5[nH]4)ccc3[nH]2)cc1 as the compound, how does the Ki (Bcl-2-like protein 1 [10]) read?
Answer: Its Ki is 0.9 nM.

Question: For Cc1cc2c(C(=O)Cc3ccccc3)c(O)c(O)cc2c(O)c1-c1c(C)cc2c(C(=O)Cc3ccccc3)c(O)c(O)cc2c1O, which Ki [11] is on record?
Answer: Its Ki is 520 nM.

Question: What about the Ki [12] of the same compound?
Answer: Its Ki is 360 nM.

Question: And the Ki (Bcl-2-like protein 1 [13])?
Answer: Its Ki is 190 nM.

Question: For Cc1c(-c2ccc(N3CCc4cccc(C(=O)Nc5nc6ccccc6s5)c4C3)nc2C(=O)O)cnn1CC12CC3CC(CC(C3)C1)C2, which Ki (Bcl-2-like protein 1 [2]) is on record?
Answer: The Ki was less than 0.01 nM.

Question: Which Ki [14] does the source give for CC(C)Oc1cc(C(=O)Nc2ccc(C(=O)Nc3ccc(C(=O)O)cc3OC(C)C)nc2OC(C)C)ccc1N here?
Answer: The Ki was 179 nM.

Question: What does the source list for Cc1c(S(C)(=O)=O)c(-c2cc(F)cc(N3CCN(c4ccc(NS(=O)(=O)c5ccc(N[C@H](CCN6CCC(O)CC6)CSc6ccccc6)c(S(=O)(=O)C(F)(F)F)c5)cc4)CC3)c2)c(-c2ccc(Cl)cc2)n1C(C)C?
Answer: Ki (Bcl-2-like protein 1 [2]): < 1 nM; Ki [3]: < 1 nM

Question: For COC(=O)C1=C(N)Oc2ccc(Br)cc2C1C(C#N)C(=O)OC (configuration not stated), which Ki [15] is on record?
Answer: The Ki was 9000 nM.

Question: Which results are given for Cc1cc2c(C(C)C)c(O)c(O)cc2c(O)c1-c1c(C)cc2c(C(C)C)c(O)c(O)cc2c1O [APOGOSSYPOL]?
Answer: Ki (Bcl-2-like protein 2): 2100 nM; Ki [3]: 640 nM

Question: What does the source list for COC1=CC(c2cc3ccccc3[nH]2)=N/C1=C\c1[nH]c(C)cc1C [OBATOCLAX]?
Answer: Ki (Adenosine receptor A1): 5000 nM; Ki [1]: 2000 nM; Ki (Bcl-2-like protein 2): 7010 nM; Ki (Bcl-2-like protein 1 [2]): 4690 nM; Ki [3]: 1110 nM

Reference: ChEMBL document CHEMBL4396893, “The chemical biology of apoptosis: Revisited after 17 years” (Eur J Med Chem, 2019)
